Laboratory results reported in patent US20240041977A1, “ANNEXIN A1 N-TERMINAL PEPTIDE FORMULATIONS AND METHODS” (ResoTher Pharma A/S, priority 2020, published 2024).
“And” between values parts separate entries of the source, which are not always exact repeats. Equal entries are not always repeated. Marks after values point to notes of the source that are not given here. Ends that are not written are not given here.

Key:
[1] = ThT assay lag-time (fibrillation propensity, physical stability); type: physicochemical
Excerpt: ThT is widely used to visualize and quantify the presence of misfolded peptide and protein aggregates called amyloids or fibrils. ThT is a fluorescent molecule that binds to inter molecular beta-sheets in peptides and proteins (here AnxA1). […] A weaker fluorescence intensity is indicative of less amyloids or fibrils present with fewer intermolecular beta-sheets where ThT can bind. Some peptides have a tendency to form fibrils and amyloids and the propensity is dependent on the formulation conditions in an unpredictable manor. Fibrillation is a stochastic process and to avoid long analysis times and both false negatives and positive results, shear stress is introduced to the sample by rigorous rotation in microtiter plates while continuously monitoring the fluorescence emission at approximately 486 nm. An increase in the fluorescence is an indication of the formation of amyloids or fibrils and the time it takes for the fluorescence to start increasing is known as the lag-time. A faster (short) lag-time is an indication of higher propensity for the peptide to degrade by formation of fibrils or amyloids. A ThT fluorescence of 50 AU at t=0 is considered noise or background. Lag time is reported as the time it takes for the signal intensity to exceed 50 AU. All samples for the ThT assay were filtered through cellulose acetate filters ([…], Ø=13 mm, rinsed with MilliQ® water prior to filtration). For each sample, 20 μL ThT of a 1 mM solution was added to 1 mL peptide solution. From this sample mixture, 200 μL was transferred into n wells in a 96 well microtiter plate (n=3-6). 96-well NUNC plates Bottom optics and Sealing tape, Thermo Scientific™ Nunc™ Sealing Tapes, was used. Lag-time is reported as an average of n samples. A fluorescence plate reader (CLARIOstar® Plus, BMG Labtech) was used for the experiments with the following setting: Excitation wavelength 450 nm; Dichroic filter 465 nm; Emission wavelength 486 nm; Focal height 3.5 mm; Gain 1000; […]; […]; Number of flashes per well 20; Temperature 25° C.; Shake mode orbital, Frequency of 300 rpm, 200 s, and shake after each cycle. If possible, the average of all ThT data replicates are used for ThT lag-time determination. In case of very stochastic data, worst-case data is used for lag-time evaluation. ThT lag-time was determined using either a 1-step or 2-step sigmoidal curve.

[2] = Dissolution time; type: physicochemical
Experimental: The peptide was initially wetted with a small amount of solvent and left for 5 minutes and following added the full amount of solvent. The solution was swirled by hand and observation of final dissolution time noted.
1.6 or 3.2 mg AnxA1 was added to Milli Q® water at around neutral pH containing different salts (NaCl, CaCl2, ZnCl2 or HCl) according to table 2. Dissolution times was observed and the resulting solutions was analyzed using the ThT assay.

[3] = Milli Q water around neutral pH, no addition of salt

## AMVSEFLKQAWFIENEEQEYVQTLKSSKGGPGSAVSPYPTFNPSSDV-NH2 [AnxA1]
[1]; AnxA1 4.7 mg/mL, sorbitol 5 wt.%, Tris 10 mM, pH 7.5
  Lag-time: 10.8 h
[1]; AnxA1 4.7 mg/mL, sucrose 10 wt.%, Tris 10 mM, pH 7.5
  Lag-time: 11.1 h
[1]; AnxA1 4.7 mg/mL, sucrose 10 wt.%, glycyl-glycine 30 mM, pH 8.0 (two samples)
  Lag-time: >65 h and 50 h
[1]; AnxA1 4.8 mg/mL, mannitol 5 wt.%, histidine 10 mM, pH 6.6
  Lag-time: 42.1 h
[1]; AnxA1 4.8 mg/mL, sorbitol 5 wt.%, histidine 10 mM, pH 6.7
  Lag-time: 21.3 h
[1]; AnxA1 4.8 mg/mL, sucrose 10 wt.%, glycylglycine 10 mM, pH 7.9, no increase in fluorescence within 65 hours
  Lag-time: > 65* hours
[1]; AnxA1 4.8 mg/mL, sucrose 10 wt.%, histidine 10 mM, pH 6.6
  Lag-time: 48.8 h
[1]; AnxA1 5.0 mg/mL, 0.9% NaCl in Milli Q water, pH 7.3
  Avg. lag-time: 2.7 h
[1]; AnxA1 5 mg/mL, tonicity 80%, mannitol 3.2 wt.%, sucrose 0.8 wt.%, NaHCO3 10 mM, pH 8.41
  Lag-time: <60 h
[1]; AnxA1 5 mg/mL, tonicity 80%, mannitol 3.2 wt.%, sucrose 0.8 wt.%, glycylglycine 10 mM, pH 8.40
  Lag-time: <60 h
[1]; AnxA1 5 mg/mL, tonicity 100%, mannitol 4.0 wt.%, sucrose 1.0 wt.%, NaHCO3 10 mM, pH 8.40
  Lag-time: <60 h
[1]; AnxA1 5 mg/mL, tonicity 100%, mannitol 4.0 wt.%, sucrose 1.0 wt.%, glycylglycine 10 mM, pH 8.39
  Lag-time: <60 h
[1]; AnxA1 5 mg/mL, tonicity 120%, mannitol 4.8 wt.%, sucrose 1.2 wt.%, NaHCO3 10 mM, pH 8.40
  Lag-time: <60 h
[1]; AnxA1 5 mg/mL, tonicity 120%, mannitol 4.8 wt.%, sucrose 1.2 wt.%, glycylglycine 10 mM, pH 8.41
  Lag-time: <60 h
[1]; AnxA1 5 mg/mL, tonicity 200%, mannitol 8.0 wt.%, sucrose 2.0 wt.%, NaHCO3 10 mM, pH 8.44
  Lag-time: <60 h
[1]; AnxA1 5 mg/mL, tonicity 200%, mannitol 8.0 wt.%, sucrose 2.0 wt.%, glycylglycine 10 mM, pH 8.40
  Lag-time: <60 h
[1]; AnxA1 6.1 mg/mL in Milli-Q water, pH 7.4
  Avg. lag-time: 29.6 h
[1]; AnxA1 6.4 mg/mL, 0.9% NaCl in Milli Q water, pH 7.3
  Avg. lag-time: 0 h
[1]; AnxA1 7.6 mg/mL, 0.9% NaCl in Milli Q water, pH 7.3
  Avg. lag-time: 0 h
[1]; AnxA1 7.7 mg/mL, sucrose 10 wt.%, glycyl-glycine 50 mM, pH 8.5
  Lag-time: 29.5 h
[1]; AnxA1 7.8 mg/mL, mannitol 4 wt.%, sucrose 2.5 wt.%, glycyl-glycine 50 mM, pH 8.5
  Lag-time: 31.5 h
[1]; AnxA1 7.9 mg/mL, sucrose 10 wt.%, glycyl-glycine 10 mM, pH 7.5
  Lag-time: 23.8 h
[1]; AnxA1 8.0 mg/mL in Milli-Q water, pH 7.4
  Avg. lag-time: 11.5 h
[1]; AnxA1 8.0 mg/mL, mannitol 4 wt.%, sucrose 2.5 wt.%, glycyl-glycine 10 mM, pH 7.5
  Lag-time: 15.1 h
[1]; AnxA1 8.0 mg/mL, mannitol 4 wt.%, sucrose 2.5 wt.%, glycyl-glycine 10 mM, pH 8.3
  Lag-time: >65 h
[1]; AnxA1 8.0 mg/mL, mannitol 4 wt.%, sucrose 2.5 wt.%, glycyl-glycine 50 mM, pH 7.6
  Lag-time: 3.3 h
[1]; AnxA1 8.0 mg/mL, mannitol 5 wt.%, glycyl-glycine 50 mM, pH 7.5
  Lag-time: 3.1 h
[1]; AnxA1 8.0 mg/mL, mannitol 5 wt.%, glycyl-glycine 50 mM, pH 8.5
  Lag-time: 41.7 h
[1]; AnxA1 8.1 mg/mL, mannitol 5 wt.%, glycyl-glycine 10 mM, pH 7.4
  Lag-time: 13.7 h
[1]; AnxA1 8.1 mg/mL, sucrose 10 wt.%, glycyl-glycine 10 mM, pH 8.2
  Lag-time: >65 h
[1]; AnxA1 8.4 mg/mL, mannitol 5 wt.%, glycyl-glycine 10 mM, pH 8.2
  Lag-time: 41 h
[1]; AnxA1 20 mg/mL (estimated from amount weighed, gel-like texture), 0.9% NaCl, pH 8.1 (not considered valid)
  Avg. lag-time: 0 h
[1]; Example 11 composition at pH 7.5
  lag-time: 35 h and 34.7 h
[1]; [3]
  lag-time: > 50 h
[1]; NaHCO3 or glycylglycine buffer at 20% hypotonicity, and at 20% and 100% hypertonicity
  fibrillation in ThT assay: No fibrillation was observed
[1]; all samples containing 10 mM glycyl-glycine, pH 8, independent of AnxA1 concentration (1.5-4.8 mg/mL) and isotonicity modifier
  Lag-time: > 65 h
[1]; concentrations ≥5 mg/mL, 0.9% NaCl in Milli Q water, around neutral pH, degradation initiated before the analysis is started
  fibrillation propensity: very high fibrillation propensity
[1]; positive control sample in 0.9% saline
  fibrillation in ThT assay: Fibrillation is observed
[1]; saline at neutral pH around 7.3
  fibrillation propensity: very high fibrillation propensity
[2]; 20 mg freeze-dried AnxA1 per mL 0.9% NaCl (154 mM) in Milli Q at neutral pH
  dissolution: not readily dissolved
[2]; AnxA1 1.5 mg/mL, NaCl 0.9%, ZnCl2 0.77 mM, pH N/A, after more than 2 hours
  Dissolution time (Notes): not fully solubilized
[2]; AnxA1 1.6 mg/mL in Milli Q water, no salt, pH 7.5
  Dissolution time (Notes): 5 min
[2]; AnxA1 1.6 mg/mL in Milli Q water, no salt, pH 7.6
  Dissolution time (Notes): 5 min
[2]; AnxA1 1.6 mg/mL, CaCl2 0.77 mM, pH 7.2
  Dissolution time (Notes): 5 min
[2]; AnxA1 1.6 mg/mL, CaCl2 0.77 mM, pH 7.4
  Dissolution time (Notes): 10 min
[2]; AnxA1 1.6 mg/mL, NaCl 0.9%, CaCl2 0.77 mM, pH 7.1
  Dissolution time (Notes): 35 min
[2]; AnxA1 3.2 mg/mL, NaCl 0.9%, pH 7.2
  Dissolution time (Notes): 45 min
[2]; [3]
  dissolution time: less than 5 minutes
